Target: human TYK2 (JH2domain-pseudokinase) (Homo sapiens (Human), UniProt P29597)
Test: TYK2 JH2 Domain Binding Assay (KINOMEscan)
Settings: 11-point 3-fold dilution, top concentration 30,000 nM, duplicate; read-out: hTYK2_JH2_Binding (Kd; nM)
Procedure: Binding constants for compounds of the present invention against the JH2 domain were determined by the following protocol for a KINOMEscan® assay (DiscoveRx). A fusion protein of a partial length construct of human TYK2 (JH2domain-pseudokinase) (amino acids G556 to D888 based on reference sequence NP_003322.3) and the DNA binding domain of NFkB was expressed in transiently transfected HEK293 cells. From these HEK 293 cells, extracts were prepared in M-PER extraction buffer (Pierce) in the presence of Protease Inhibitor Cocktail Complete (Roche) and Phosphatase Inhibitor Cocktail Set II (Merck) per manufacturers' instructions. The TYK2(JH2domain-pseudokinase) fusion protein was labeled with a chimeric double-stranded DNA tag containing the NFkB binding site (5′-[…]-3′) fused to an amplicon for qPCR readout, which was added directly to the expression extract (the final concentration of DNA-tag in the binding reaction is 0.1 nM).
The liganded beads were blocked with excess biotin and washed with blocking buffer (SeaBlock (Pierce), 1% BSA, 0.05% Tween 20, 1 mM DTT) to remove unbound ligand and to reduce nonspecific binding.
Extracts were loaded with DNA-tag and diluted into the binding reaction in a two step process. First extracts were diluted 1:100 in 1× binding buffer (PBS/0.05% Tween 20/10 mM DTT/0.1% BSA/2 μg/ml sonicated salmon sperm DNA) containing 10 nM DNA-tag. This dilution was allowed to equilibrate at room temperature for 15 minutes and then subsequently diluted 1:100 in 1× binding buffer. […] Kds were determined using an 11-point 3-fold compound dilution series with three DMSO control points. […] The compounds were then diluted directly into the assays such that the final concentration of DMSO was 0.9%. All reactions performed in polypropylene 384-well plates. Each was a final volume of 0.02 mL. Assays were incubated with shaking for 1 hour at room temperature. Then the beads were pelleted and washed with wash buffer (lx PBS, 0.05% Tween 20) to remove displaced kinase and test compound. […] The qPCR protocol consisted of a 10 minute hot start at 95° C., followed by 35 cycles of 95° C. for 15 seconds, 60° C. for 1 minute.
Kds were determined using an 11-point 3-fold compound dilution series with three DMSO control points. […] The compounds were then diluted directly into the assays such that the final concentration of DMSO was 0.9%. The Kds were determined using a compound top concentration of 30,000 nM. Kd measurements were performed in duplicate.
Binding constants (Kds) were calculated with a standard dose-response curve using the Hill equation: […]
The Hill Slope was set to −1.

human TYK2 (JH2domain-pseudokinase), sequence (P29597 556-888): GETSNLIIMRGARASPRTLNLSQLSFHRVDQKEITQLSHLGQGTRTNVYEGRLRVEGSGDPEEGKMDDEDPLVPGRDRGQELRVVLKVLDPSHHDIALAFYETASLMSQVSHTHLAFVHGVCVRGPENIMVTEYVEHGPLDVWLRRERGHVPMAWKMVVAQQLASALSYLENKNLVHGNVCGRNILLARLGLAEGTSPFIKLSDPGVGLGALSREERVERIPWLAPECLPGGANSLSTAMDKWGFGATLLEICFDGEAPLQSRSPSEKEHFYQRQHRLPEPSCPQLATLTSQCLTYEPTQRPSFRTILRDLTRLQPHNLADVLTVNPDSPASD

Compound | Kd
CNc1cc(-c2cn(C3CCOCC3)c3ncccc23)nc2c(C(=O)N[C@H]3CCC[C@H](O)C3)cnn12 [Compound I-65, N-((1S,3S)-3-Hydroxycyclohexyl)-7-(methylamino)-5-(1-(tetrahydro-2H-pyran-4-yl)-1H-pyrrolo[2,3-b]pyridin-3-yl)pyrazolo[1,5-a]pyrimidine-3-carboxamide] | < 0.2 nM
CNc1cc(-c2cnc3n(C4CCN(CCOC)CC4)cccc2-3)nc2c(C(=O)N[C@@H]3CC[C@H]3OC)cnn12 [Compound I-1021, N-((1R,2R)-2-methoxycyclobutyl)-5-(7-(1-(2-methoxyethyl)piperidin-4-yl)-7H-pyrrolo[2,3-b]pyridin-3-yl)-7-(methylamino)pyrazolo[1,5-a]pyrimidine-3-carboxamide] | 0.2 to 1 nM
O=C(N[C@@H]1CC[C@H]1F)c1cnn2c3c(c(-c4cn([C@H]5C[C@H](O)C5)c5ncccc45)nc12)OCCN3 [Compound I-758] | < 0.2 nM
CC(C)n1cc(-c2nc3c(C(=O)N[C@@H]4CC[C@@H]4O)cnn3c3c2OCCN3)c2cccnc21 [Compound I-755] | < 0.2 nM
CNc1ccc(-c2cc(NC)n3ncc(C(=O)NC4CC4)c3n2)n2ccnc12 [Compound I-478, N-Cyclopropyl-7-(methylamino)-5-(8-(methylamino)imidazo[1,2-a]pyridin-5-yl)pyrazolo[1,5-a]pyrimidine-3-carboxamide] | 0.2 to 1 nM
O=C(N[C@H]1CCC1(F)F)c1cnn2c3c(c(Nc4cccn([C@H]5[C@@H]6COC[C@@H]65)c4=O)nc12)OCCN3 [Compound I-770] | > 10 nM
CNc1cc(-c2cn(CCN3CCOCC3)c3ncccc23)nc2c(C(=O)N[C@@H]3CC[C@H]3OC)cnn12 [Compound I-55, N-((1R,2R)-2-Methoxycyclobutyl)-7-(methylamino)-5-(1-(2-morpholinoethyl)-1H-pyrrolo[2,3-b]pyridin-3-yl)pyrazolo[1,5-a]pyrimidine-3-carboxamide] | 0.2 to 1 nM
CNc1cc(-c2cn([C@@H]3CCOC[C@H]3O)c3ncccc23)nc2c(C(=O)NC3CC3)cnn12 [Compound I-499] | < 0.2 nM
CNc1cc(-c2ccc(N3CC[C@H](OC)C3)c3nccn23)nc2c(C(=O)NC3CC[C@H]3O)cnn12 (stereo partly drawn) [Compound I-907] | < 0.2 nM
CO[C@H]1CC[C@@H]1NC(=O)c1cnn2c3c(c(Nc4cccn([C@H]5[C@@H]6COC[C@@H]65)c4=O)nc12)OCCN3 [Compound I-764] | < 0.2 nM
O=C(N[C@H]1CCC1(F)F)c1cnn2c3c(c(-c4cn(C5COC5)c5ncccc45)nc12)OCCN3 [Compound I-773] | < 0.2 nM
CNc1cc(-c2cnc3n(CC(=O)N4CC5(COC5)C4)cccc2-3)nc2c(C(=O)N[C@@H]3CC[C@H]3OC)cnn12 [Compound I-1013] | < 0.2 nM
CNc1cc(-c2cn(CCN3CCOCC3)c3ncccc23)nc2c(C(=O)N[C@H]3CC[C@@H]3OC)cnn12 [Compound I-54, N-((1S,2S)-2-Methoxycyclobutyl)-7-(methylamino)-5-(1-(2-morpholinoethyl)-1H-pyrrolo[2,3-b]pyridin-3-yl)pyrazolo[1,5-a]pyrimidine-3-carboxamide] | < 0.2 nM

More lines, now with the values ahead:

Kd | Compound
> 10 nM | CNc1cc(Nc2cccn(-c3coc(C)n3)c2=O)nc2c(C(=O)N[C@@H]3C[C@@H]3F)cnn12 [Compound I-126]
0.2 to 1 nM | CNc1cc(Nc2cccn([C@@H]3C[C@H]3F)c2=O)nc2c(C(=O)N[C@@H]3CC[C@H](O)C3)cnn12 [Compound I-42, 5-((1-((1R,2R)-2-Fluorocyclopropyl)-2-oxo-1,2-dihydropyridin-3-yl)amino)-N-((1R,3S)-3-hydroxycyclopentyl)-7-(methylamino)pyrazolo[1,5-a]pyrimidine-3-carboxamide]
< 0.2 nM | CNc1cc(Nc2cccn(-c3ocnc3C)c2=O)nc2c(C(=O)N[C@@H]3CC[C@H]3F)cnn12 [Compound I-187]
< 0.2 nM | CNc1cc(-c2cn([C@H]3COC[C@@H]3OC)c3ncccc23)nc2c(C(=O)N[C@@H]3C[C@@H]3F)cnn12 [Compound I-504]
0.2 to 1 nM | CNc1cc(Nc2cccn([C@@H]3CCC[C@@H]3O)c2=O)nc2c(C(=O)N[C@H]3CC[C@H](OC)C3)cnn12 [Compound I-79, 5-((1-((1R,2S)-2-Hydroxycyclopentyl)-2-oxo-1,2-dihydropyridin-3-yl)amino)-N-((1S,3S)-3-methoxycyclopentyl)-7-(methylamino)pyrazolo[1,5-a]pyrimidine-3-carboxamide]
1 to 10 nM | CNc1cc(Nc2cccn(C3CC(F)(F)C3)c2=O)nc2c(C(=O)N[C@@H]3CC[C@@H](OC)C3)cnn12 [Compound I-72, 5-((1-(3,3-Difluorocyclobutyl)-2-oxo-1,2-dihydropyridin-3-yl)amino)-N-((1R,3R)-3-methoxycyclopentyl)-7-(methylamino)pyrazolo[1,5-a]pyrimidine-3-carboxamide]
1 to 10 nM | CNc1cc(Nc2ccc(F)n(-c3ccccn3)c2=O)nc2c(C(=O)N[C@@H]3C[C@@H]3F)cnn12 [Compound I-474, 5-((6-Fluoro-2-oxo-2H-[1,2′-bipyridin]-3-yl)amino)-N-((1R,2S)-2-fluorocyclopropyl)-7-(methylamino)pyrazolo[1,5-a]pyrimidine-3-carboxamide]
0.2 to 1 nM | CNc1cc(Nc2cccn(-c3ncco3)c2=O)nc2c(C(=O)N[C@@H]3CC[C@@H](OC)C3)cnn12 [Compound I-83, N-((1R,3R)-3-Methoxycyclopentyl)-7-(methylamino)-5-((1-(oxazol-2-yl)-2-oxo-1,2-dihydropyridin-3-yl)amino)pyrazolo[1,5-a]pyrimidine-3-carboxamide]
0.2 to 1 nM | CNc1cc(Nc2cccn([C@@H]3CC[C@@H]3O)c2=O)nc2c(C(=O)N[C@H]3CCC[C@H](OC)C3)cnn12 [Compound I-100, 5-((1-((1R,2S)-2-Hydroxycyclobutyl)-2-oxo-1,2-dihydropyridin-3-yl)amino)-N-((1S,3S)-3-methoxycyclohexyl)-7-(methylamino)pyrazolo[1,5-a]pyrimidine-3-carboxamide]
< 0.2 nM | CNc1cc(-c2cn([C@@H]3CCOC[C@H]3O)c3ncccc23)nc2c(C(=O)N[C@@H]3C[C@@H]3F)cnn12 [Compound I-505]
0.2 to 1 nM | CNc1cc(Nc2cccn([C@H]3CCC[C@@](C)(O)C3)c2=O)nc2c(C(=O)NC3CC3)cnn12 [Compound I-2, N-Cyclopropyl-5-((1-((1S,3R)-3-hydroxy-3-methylcyclohexyl)-2-oxo-1,2-dihydropyridin-3-yl)amino)-7-(methylamino)pyrazolo[1,5-a]pyrimidine-3-carboxamide]
< 0.2 nM | CNc1cc(-c2cn(C3COC3)c3ncccc23)nc2c(C(=O)N[C@@H]3CC[C@H]3F)cnn12 [Compound I-509]
0.2 to 1 nM | CNc1cc(Nc2cccn([C@@H]3C[C@H]3F)c2=O)nc2c(C(=O)N[C@H]3CC[C@@H]3OC)cnn12 [Compound I-52, 5-((1-((1R,2R)-2-Fluorocyclopropyl)-2-oxo-1,2-dihydropyridin-3-yl)amino)-N-((1S,2S)-2-methoxycyclobutyl)-7-(methylamino)pyrazolo[1,5-a]pyrimidine-3-carboxamide]
< 0.2 nM | CNc1cc(Nc2cccn(C3CCOCC3)c2=O)nc2c(C(=O)N[C@@H]3C[C@H]3OC)cnn12 [Compound I-27, N-((1R,2R)-2-Methoxycyclopropyl)-7-(methylamino)-5-((2-oxo-1-(tetrahydro-2H-pyran-4-yl)-1,2-dihydropyridin-3-yl)amino)pyrazolo[1,5-a]pyrimidine-3-carboxamide]
< 0.2 nM | CNc1cc(-c2cn([C@H]3COC[C@@H]3O)c3ncccc23)nc2c(C(=O)N[C@@H]3C[C@@H]3F)cnn12 [Compound I-501]
0.2 to 1 nM | CNc1cc(Nc2cccn([C@@H]3C[C@H]3F)c2=O)nc2c(C(=O)N[C@H]3CC[C@@H](O)C3)cnn12 [Compound I-43, 5-((1-((1R,2R)-2-Fluorocyclopropyl)-2-oxo-1,2-dihydropyridin-3-yl)amino)-N-((1S,3R)-3-hydroxycyclopentyl)-7-(methylamino)pyrazolo[1,5-a]pyrimidine-3-carboxamide]
< 0.2 nM | CNc1cc(Nc2cccn([C@H]3C[C@@H](OC)C3)c2=O)nc2c(C(=O)N[C@@H]3C[C@@H]3F)cnn12 [Compound I-9, N-((1R,2S)-2-Fluorocyclopropyl)-5-((1-((1s,3S)-3-methoxycyclobutyl)-2-oxo-1,2-dihydropyridin-3-yl)amino)-7-(methylamino)pyrazolo[1,5-a]pyrimidine-3-carboxamide]

Reference: patent US11414431B2, “Substituted pyrazolo[1,5-a]pyrimidines as TYK2 inhibitors” (Nimbus Lakshmi, Inc., priority 2018, dated 2022)
